What was measured:
Assay in all cases: AUC of viability dose-response curve (% viability x log10 dose units); higher = less sensitive
Conditions in all cases: 48 h
[1] = tested on: P12-Ichikawa
Method in brief: (§1)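 Leukemia cells adapted to each medium were seeded in 1536-well plates (500 or 1000 cells/well). They were dosed with library compounds in DMSO at 11 threefold doses, 47 μM to 0.79 nM, for 48 h at 37°C. CellTiter-Glo One luminescence was normalised per plate to DMSO and cell-free wells. Area under the curve was integrated by trapezoidal rule over log10 doses on a four-parameter log-logistic fit; curves exceeding full viability were scaled and curves failing quality control removed.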

[2] = tested on: NOMO1
Method in brief: as §1

[3] = tested on: SEM cells
Method in brief: as §1

[4] = RPMI 5 mM glucose + 10% dialyzed FBS

Compound	AUC of viability dose-response curve ([1]; HPLM + 10% dialyzed FBS)	AUC of viability dose-response curve ([1]; RPMI 5 mM glucose + 10% FBS)	AUC of viability dose-response curve [1, 4]	AUC of viability dose-response curve ([2]; HPLM + 10% dialyzed FBS)	AUC of viability dose-response curve ([2]; RPMI 5 mM glucose + 10% FBS)	AUC of viability dose-response curve [2, 4]	AUC of viability dose-response curve ([3]; HPLM + 10% dialyzed FBS)	AUC of viability dose-response curve ([3]; RPMI 5 mM glucose + 10% FBS)	AUC of viability dose-response curve [3, 4]
C[C@@H](NCc1cc2ccccc2[nH]1)c1cccc2ccccc12	441	434	414	443	428	449	409	406	413
C=C[C@H]1CN2CCC1C[C@@H]2[C@@H](O)c1ccnc2ccccc12 (stereo not given in full)	443	436	429	453	422	420	448	435	451
OCCNC1CCCc2c1[nH]c1ccc(-c3ccccc3)cc21 (stereo not given)	444	441	446	448	454	453	409	413	416
OC(CCN1CCCCC1)(C2CC\3CC2\C=C3)C4=CC=CC=C4 (stereo not given)	463	470	455	465	475	453	442	440	439
COc1ccc2c(OCc3nnc4ccc(-c5ccccc5)nn34)ccnc2c1	459	477	428	443	471	466	–	–	–
CN1CCN(Cc2ccc(NC(=O)Nc3ccc(Oc4cc(NC(=O)C5CC5)ncn4)cc3)cc2C(F)(F)F)CC1	285	289	291	271	278	275	–	–	–
C[C@]12CC[C@@H]3c4ccc(O)cc4CC[C@H]3[C@@H]1CC[C@@H]2O	446	455	440	435	453	450	441	434	431
O=[S+]([O-])(CCSSCC[S+](=O)([O-])[O][Na])[O][Na]	461	451	472	432	428	450	423	457	438
CCCOc1ccc2[nH]c(NC(=O)OC)nc2c1	226	217	257	286	259	273	240	169	199
O=[N+]([O-])c1ccc(Nc2ccccc2-c2ccccc2)c2nonc12	432	432	433	451	432	418	–	–	–
O=C(O)CSCC(=O)NC1CCSC1=O (stereo not given)	466	469	463	471	476	476	451	456	464
CN(C)CC[C@H](CSc1ccccc1)Nc1ccc([S+](=O)([O-])NC(=O)c2ccc(N3CCN(Cc4ccccc4-c4ccc(Cl)cc4)CC3)cc2)cc1[N+](=O)[O-]	321	354	338	363	388	324	195	218	191
O=[S+]([O-])(/N=C/c1c(O)ccc2ccccc12)c1cccs1	464	465	468	443	472	455	442	428	440
CN1C2=CC(=O)/C(=N/NC(N)=O)C=C2CC1S(=O)(=O)[O-].[Na+] (stereo not given)	475	472	459	454	462	461	455	449	447
COc1cccc2c(NCc3ccccc3)nc(-n3c(N)nc4ccccc43)nc12	428	435	439	453	457	455	369	367	379
C[C@H](NC(=O)Cc1cc(F)cc(F)c1)C(=O)N[C@@H]1C(=O)N(C)c2ccccc2-c2ccccc21	–	–	–	386	417	434	373	309	362
CC(Cc1ccc(O)c(O)c1)(NN)C(=O)O (stereo not given)	448	467	465	475	453	442	469	466	468
Nc1nc(Nc2ccc([S+](N)(=O)[O-])cc2)nn1C(=O)c1c(F)cccc1F	455	435	439	437	410	402	397	407	399
O=C(O)CCNc1cc(N2CCc3ccccc3CC2)nc(-c2ccccn2)n1	463	454	459	448	456	452	463	434	463
CO[C@H]1/C=C/O[C@@]2(C)Oc3c(C)c(O)c4c(O)c(c(/C=N/N5CCN(C)CC5)c(O)c4c3C2=O)NC(=O)/C(C)=C\C=C\[C@H](C)[C@H](O)[C@@H](C)[C@@H](O)[C@@H](C)[C@H](OC(C)=O)[C@@H]1C	441	445	430	431	461	461	–	–	–
O=C(O)[C@@H](c1ccc(OCc2ccc3ccccc3n2)cc1)C1CCCC1	450	435	458	466	470	454	–	–	–
CCNC(=O)Nc1ccc(-c2nc3c(c(N4CCOC[C@@H]4C)n2)CCN(C2COC2)C3)cc1	370	358	356	352	407	380	366	353	378
NC/1=N/C(=O)N(C[C@@H](CO)OC[P](O)(O)=O)/C=C1	458	443	460	421	460	475	455	466	439
COC1=CC(=CC=C1)C2=CC=C(NC(=O)/C3=C(/CCC3)C(O)=O)C(=C2)F	444	436	431	428	469	457	465	461	447

Compound	AUC of viability dose-response curve ([1]; HPLM + 10% dialyzed FBS)	AUC of viability dose-response curve ([1]; RPMI 5 mM glucose + 10% FBS)	AUC of viability dose-response curve [1, 4]	AUC of viability dose-response curve ([2]; HPLM + 10% dialyzed FBS)	AUC of viability dose-response curve ([2]; RPMI 5 mM glucose + 10% FBS)	AUC of viability dose-response curve [2, 4]	AUC of viability dose-response curve ([3]; HPLM + 10% dialyzed FBS)	AUC of viability dose-response curve ([3]; RPMI 5 mM glucose + 10% FBS)	AUC of viability dose-response curve [3, 4]
CCc1ccc(C(=O)Nc2cc(CN3CCN(C)CC3)cc(C(F)(F)F)c2)cc1C#Cc1cnc2ccnn2c1	459	454	415	459	460	477	449	453	451
O=C([O-])[C@H](CC(=O)N1C[C@H]2CCCC[C@H]2C1)Cc1ccccc1	445	442	471	465	440	448	395	418	374
C/C(=C\c1csc(C)n1)[C@@H]1C[C@@H]2O[C@@H]2CCC[C@H](C)[C@H](O)[C@@H](C)C(=O)C(C)(C)[C@@H](O)CC(=O)O1	–	–	–	146	93	138	–	–	–
Cn1cc(-c2cnn3c(N)c(Br)c([C@@H]4CCCNC4)nc23)cn1	358	342	339	352	322	314	300	344	289
C[C@H]1[C@H](O)O[C@@H]2O[C@@]3(C)CC[C@H]4[C@H](C)CC[C@@H]1[C@@]24OO3	386	340	333	321	316	341	374	348	324
Cn1cnc(-c2cc3nccc(Oc4ccc(NC(=S)NC(=O)Cc5ccccc5)cc4F)c3s2)c1	391	374	395	393	395	397	–	–	–
Oc1cc2c(cc1O)C1c3ccc(O)c(O)c3OCC1(O)C2 (stereo not given)	461	449	469	456	464	459	430	441	447
O=C(c1ccc(/C=C/c2n[nH]c3ccccc23)cc1)N1CCNCC1	332	331	346	434	387	383	–	–	–
O=C(Nc1ccc([N+](=O)[O-])cc1Cl)c1cc(Cl)ccc1O	386	368	335	375	363	372	369	336	370
CCCC(CCC)C(=O)[O-]	468	472	476	448	469	453	461	442	468
CC(C)(C)Cn1c(N)nc2ccc(-c3[nH]c(C(C)(C)C)nc3-c3ccc(F)cc3)nc21	422	414	401	367	392	405	407	347	412
CNC(=O)c1ccc(N2C(=S)N(c3ccc(C#N)c(C(F)(F)F)c3)C(=O)C2(C)C)cc1F	453	456	457	457	472	460	–	–	–
CC1(C)Cc2c(sc(NC(=S)NC(=O)c3ccccc3)c2C(=O)O)CO1	469	476	470	466	456	458	452	474	427
C[N+](C)(C)CC(=O)O.[Cl-]	442	446	411	432	398	416	373	374	391
NCCCCCC(=O)O	463	469	463	469	459	447	398	459	389
CN(c1nccc(=O)[nH]1)C1CCN(c2nc3ccccc3n2Cc2ccc(F)cc2)CC1	466	460	462	466	459	471	474	424	473
NC(=O)c1ccc(-c2nc(-c3ccc4c(c3)OCO4)c(-c3ccccn3)[nH]2)cc1	457	429	452	473	466	472	–	–	–
C/C(=C\c1csc(C)n1)[C@@H]1C[C@@H]2O[C@]2(C)CCC[C@H](C)[C@H](O)[C@@H](C)C(=O)C(C)(C)[C@@H](O)CC(=O)O1	139	120	184	138	82	114	104	74.6	95.4
CO[C@H]1/C=C/O[C@@]2(C)Oc3c(C)c(O)c4c(O)c(c(/C=N\N5CCN(C6CCCC6)CC5)c(O)c4c3C2=O)NC(=O)/C(C)=C\C=C\[C@H](C)[C@H](O)[C@@H](C)[C@@H](O)[C@@H](C)[C@H](OC(C)=O)[C@@H]1C	–	–	–	308	300	304	–	–	–
FC(F)(F)C1=CC=C2C(SCCCCCO\C3=C\O\C(CN4CCOCC4)=C/C3=O)=CC=NC2=C1	464	457	461	470	477	469	–	–	–
CCN1\C=C(C(O)=O)/C(=O)C2=C1C=C(N3CCN(C)CC3)C(=C2)F	437	437	426	–	–	–	472	458	450
CC(=O)OCC(=O)[C@@]12OC(C)(C)O[C@@H]1C[C@H]3[C@@H]4C[C@H](F)C/5=C/C(=O)/C=C\[C@]5(C)[C@@]4(F)[C@@H](O)C[C@]23C	393	370	344	474	440	420	–	–	–
FC1=CC=C(CN2\C=C/C=C(/C(=O)N[C@@H](COC3=CC4=C(NC(=O)N4)C=C3)C5=CC=CC=C5)C2=O)C=C1F	430	365	375	–	–	–	373	409	365
O=[S+]([O-])(O)c1ccc2cc(/N=N/c3cc([S+](=O)([O-])O)c4cccnc4c3O)ccc2c1	462	463	458	455	462	460	–	–	–

Reference: the supplement of paper PMC11451515
